According to patent US9363996B2, “Compositions and method for blocking ethylene response in field crops using 3-(cy-clopropyl-l-enyl)-propanoic salt” (Yissum Research Development Company of the Hebrew …, priority 2009, dated 2016):

Legend:
[1] = system: young cotton leaf explants; assay: Ethylene-induced petiole abscission of young cotton leaf explants; format: in vivo, cotton (Gossyium hirsutum barbadense L.)
Description: (1) Abscission—This is a very sensitive model system for studying the effects of plant hormones. Ethylene induces the process of abscission, while auxin delays it. In the laboratory the experimental system is based on plant organ explants, which include the abscission zone. Abscission is induced by exposure to ethylene and at the termination of the experiment the number of abscised organs, usually either leaf blades or petioles are counted and the fraction of abscission is calculated. In the case of fruit, the decrease in fruit retention force is analyzed. In cotton, when WS-CPD (the ethylene-action antagonist herein disclosed) is tested, the whole plants or explants are pretreated by spraying with the antagonist, dissolved in a phosphate buffer solution (10-20 mM, pH 7.0) including 0.1% commercially available Kinetic™ as surfactant, and left to incubate for a predetermined time, usually between 6 and 24 h. The plants or explants are then further exposed for 24 h to ethylene gas (5 to 20 μL L^−1). The plants or explants are then ventilated and incubated for the required time under controlled conditions. At the end of the experiment the percentage of abscission is determined. (2) Chlorophyll degradation—This is a standard model for studying senescence. Plant material (whole plants, excised leaves or leaf discs) are pretreated. In cotton, tobacco and wheat, when WS-CPD is tested, the whole plants or explants are pretreated by spraying with the antagonist, dissolved in phosphate buffer solution (10-20 mM, pH 7.0) including 0.1% commercially available Kinetic™ surfactant, and left to incubate for a predetermined time, usually between 6 and 241. […] At the end of the experiment a dimethylsulfoxide (DMSO) extract of the plant tissue is prepared, and the chlorophyll content of the extract is determined by spectrophotometric analysis. […] The extent of ethylene-induced epinasty of leaves is determined by measuring the change of the angle between the petiole and the stem shoot or blade. […]

wheat seedlings = assay: Third leaf growth of young wheat seedlings exposed to ethylene; format: in vivo, wheat (Triticum turgidum var. 'Gdera')

O=C([O-])CCC1=CC1.[Na+] [WS-CPD, 3-cyclopropyl-1-enyl-propanoic sodium salt]
abscission percentage of explants ([1]; WS-CPD 300 μg mL^−1): lower than the air control treatment
decrease of abscission ([1]; WS-CPD 10 to 30 μg mL^−1, throughout the experiment, ethylene-treated explants): about 20%
reversal of the inhibitory effect of ethylene on third leaf growth (wheat seedlings; WS-CPD 40 μg mL^−1, 1.6 ethylene): 100%
inhibitory effect of ethylene on third leaf growth (wheat seedlings; WS-CPD 4 and 40 μg mL^−1 spray at day 10, ethylene 1.6 to 40 μg L^−1 (so in the source) 24 h later for two days): effectively antagonized
